Assay results as given in US7728146B2, “Enzyme inhibitors” (Probiodrug AG, priority 2006, dated 2010).

Assays:
[1] = molecular target: T1, DP IV (Homo sapiens, UniProt P27487); experiment: DP IV inhibition IC50, parallel-synthesis compounds tested directly following synthesis (without purification); type: biochemical; set-up: IC50 DP4; other: tested directly following parallel synthesis, without purification; compounds of formula (Ib) from parallel synthesis, tested directly following synthesis; conditions: DP IV inhibition; compounds of formula (Ib) from parallel synthesis, tested directly following synthesis (without purification); read-out: IC50
T1 sequence (P27487 whole entry): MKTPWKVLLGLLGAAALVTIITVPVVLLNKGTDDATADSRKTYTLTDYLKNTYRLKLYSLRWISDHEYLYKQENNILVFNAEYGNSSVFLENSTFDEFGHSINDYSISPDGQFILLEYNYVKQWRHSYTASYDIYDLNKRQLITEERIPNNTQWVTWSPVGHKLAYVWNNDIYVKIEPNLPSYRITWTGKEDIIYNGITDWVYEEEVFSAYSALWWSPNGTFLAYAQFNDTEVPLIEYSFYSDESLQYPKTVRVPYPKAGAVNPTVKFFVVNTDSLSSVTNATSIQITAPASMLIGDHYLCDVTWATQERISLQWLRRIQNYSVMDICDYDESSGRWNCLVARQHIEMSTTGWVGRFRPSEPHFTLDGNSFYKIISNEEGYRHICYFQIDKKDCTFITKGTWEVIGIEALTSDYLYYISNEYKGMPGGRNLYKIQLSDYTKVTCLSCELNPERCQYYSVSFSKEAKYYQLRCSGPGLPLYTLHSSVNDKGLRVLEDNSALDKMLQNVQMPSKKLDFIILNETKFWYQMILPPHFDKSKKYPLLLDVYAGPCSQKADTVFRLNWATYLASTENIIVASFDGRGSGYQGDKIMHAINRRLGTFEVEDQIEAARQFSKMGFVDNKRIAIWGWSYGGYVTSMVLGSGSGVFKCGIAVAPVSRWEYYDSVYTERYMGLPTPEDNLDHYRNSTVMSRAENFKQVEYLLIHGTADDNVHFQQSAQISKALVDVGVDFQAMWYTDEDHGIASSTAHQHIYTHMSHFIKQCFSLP
How it was run: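 Porcine kidney or recombinant human enzyme (~40-50 μU/ml, HEPES buffer) hydrolysing Gly-Pro-pNA at room temperature, with 5% DMSO final; 11-point 1:2 dilutions from 100 μM final, in duplicate. pNA release read at 405 nm over ~18 min; slopes vs solvent control give residual activity, and IC50 comes from a 4-parameter fit.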

[2] = Blood-brain distribution / LogBB; type: in vivo; conditions: male Wistar rats, bolus plus 60 min continuous i.v. infusion; for Kp at 60 min / Kp at 1 h: Wistar (Crl:WI), rat, brain and plasma, iv; for Kp at 1 h: read-out: Brain/Plasma ratio; for LogBB Mean: mean of the animals
Method: Male Wistar rats (N=20, 5 per Group; Crl:WI) with a body weight ranging between 300 and 350 g were purchased from Charles River Laboratories (Sulzfeld, Germany).
One week after adaptation to the housing conditions, catheters were implanted into the carotid artery and jugular vein of the rats under general anaesthesia (i.p. injection of 0.25 ml/kg b.w. Rompun® [2%], BayerVital, Germany and 0.5 ml/kg b.w. Ketamin 10, Atarost GmbH & Co., Twistringen, Germany). The animals were allowed to recover for one week. The catheters were flushed with heparin-saline (100 IU/ml) three times per week. In case of dysfunction of the catheter, a new animal were recruited to implant catheters into the carotid artery and jugular vein of this new rat under general anaesthesia. No anaesthetics were administered during infusion for compound transfer.
The bolus dose of compounds were dissolved in 10 μl DMSO and than diluted to 1 ml with saline (0.154 mol/l) and were injected via the venous catheter (n=5 rats). Thereafter, a continuous i.v. infusion of the compound solved in 10 μl DMSO and diluted to 5 ml with saline (infusion rate 0.083 ml/min; Perfusor^R fm, B. Braun, Melsungen AG, Germany) were commenced for 60 min. 150 μl arterial blood samples were taken at 0, 20, 40, 50 and 60 min and stored on ice until centrifugation (12000 rpm for 2 min). Separated plasma were frozen in liquid nitrogen for further analysis.
After 60 min primed-continuous infusion the N=5 rats were heparinized with 50 IU per 100 g b.w. heparin 5 min before the end of protease inhibitor infusion. The rats were quickly anaesthetized with i.a. ketamin® injection and bled to death from the abdominal vessels. The aorta supplying the upper part of the body were separated and canulated. The upper part of the body (including the brain) were perfused with 20 ml ice cold saline to flush the vessels free within the brain. The brains were taken out of the skull, rinsed briefly in ice cold saline and placed on filter paper.
Preparation: The brains were divided into their hemispheres, which were weighed and frozen in liquid nitrogen for further analysis.
In plasma samples and brain tissues concentrations of compounds were measured using the aforementioned LC-MS methods.

[3] = molecular target: DP9 (Homo sapiens, UniProt Q86TI2); experiment: DP9 assay; type: biochemical; conditions: for Selectivity DP9(IC50)/DPIV(Ki): ratio IC50 DP9 / Ki DP IV
Sequence of DP9 (Q86TI2 whole entry, species assumed): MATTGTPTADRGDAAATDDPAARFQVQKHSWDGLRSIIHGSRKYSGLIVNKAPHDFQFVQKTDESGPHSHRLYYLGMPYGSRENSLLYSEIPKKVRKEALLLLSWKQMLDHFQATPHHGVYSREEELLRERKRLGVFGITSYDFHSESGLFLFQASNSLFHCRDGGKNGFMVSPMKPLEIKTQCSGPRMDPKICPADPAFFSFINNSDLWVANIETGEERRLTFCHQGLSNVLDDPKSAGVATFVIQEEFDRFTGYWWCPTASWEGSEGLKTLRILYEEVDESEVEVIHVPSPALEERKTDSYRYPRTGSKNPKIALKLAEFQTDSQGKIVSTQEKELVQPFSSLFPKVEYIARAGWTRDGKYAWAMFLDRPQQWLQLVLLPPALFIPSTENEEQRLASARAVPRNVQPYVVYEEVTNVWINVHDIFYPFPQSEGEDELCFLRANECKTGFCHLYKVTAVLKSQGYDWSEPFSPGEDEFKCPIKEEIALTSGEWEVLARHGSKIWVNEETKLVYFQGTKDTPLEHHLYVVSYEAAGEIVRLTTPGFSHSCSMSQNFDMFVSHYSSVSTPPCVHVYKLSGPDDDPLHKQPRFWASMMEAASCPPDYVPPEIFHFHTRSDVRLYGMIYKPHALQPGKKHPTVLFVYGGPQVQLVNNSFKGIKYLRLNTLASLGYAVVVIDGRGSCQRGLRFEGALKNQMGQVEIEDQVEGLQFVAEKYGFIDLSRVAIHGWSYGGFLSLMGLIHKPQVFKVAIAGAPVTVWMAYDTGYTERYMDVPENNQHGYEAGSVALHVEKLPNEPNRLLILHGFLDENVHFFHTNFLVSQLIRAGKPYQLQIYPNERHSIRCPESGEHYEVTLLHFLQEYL
Method: Determination of IC50 values for DPII and DP9 are done similarly as described for DP IV.
For DP9 Gly Pro-AMC is used as substrate in a final concentration of 0.25 mM.

[4] = molecular target: T1, DP IV; experiment: Ki and inhibition type, DP IV; type: biochemical; conditions: compounds obtained by preparative synthesis
How it was run: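 Ki by non-linear regression of 7 inhibitor dilutions (range from IC50) against 4 substrate dilutions, in triplicate, using purified human recombinant enzyme under IC50 assay conditions. Inhibition type assigned from the best-fitting equation (competitive, partial competitive, non-competitive); […].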

[5] = system: neuroblastoma cell line SY5Y; experiment: LD50 determination on SY5Y (LDH); type: cell-based; conditions: 8 serial dilutions, highest concentration 1 mM
Method: After 24 h of cultivation in a 96 well plate (50 000 cells/well) compounds (dissolved in DMSO) are added and cytotoxicity and vitality of the cells are analysed after another 24 h of cultivation using the CytoTox-One Homogenoeous membrane toxicity assay (Promega).
For cytotoxicity the LDH activity in the cell culture media after 24 h of incubation are analysed. The untreated control is set to 0% cytotoxicity. For the 100% value LDH activity of lysed untreated cells are analysed.
For viability cell culture media are removed from the cells and all cells are lysed using the lysis buffer. LDH activity is determined and untreated control is set to 100% viability.
For determination of LD50 the liver carcinoma cell line HEP-G2 and the neuroblastoma cell line SY5Y may be used. The effect of 8 serial dilutions of the compounds (highest concentration 1 mM) is investigated as described above.

Which IC50 [1] does the source give for NCc1c(-c2ccc(Cl)cc2Cl)ncn1Cc1cccnc1 [Example 121b, (4-(2,4-dichlorophenyl)-1-((pyridin-3-yl)methyl)-1H-imidazol-5-yl)methanamine] here?
The IC50 was 4600 nM.

What about the LogBB ([2]; Animal No. 1) of the same molecule?
Its LogBB is −0.57.

What about the LogBB ([2]; Animal No. 2) of the same molecule?
Its LogBB is −0.50.

And the LogBB ([2]; Animal No. 3)?
Its LogBB is −0.70.

And the LogBB ([2]; Animal No. 4)?
The LogBB was −0.91.

And the Kp at 60 min [2]?
The Kp at 60 min was 0.214.

What about the Kp at 1 h [2] of the same molecule?
The Kp at 1 h was 0.214.

And the “LogBB Mean” value [2]?
The value was −0.6700.

And the “Selectivity DP9(IC50)/DPIV(Ki)” value [3]?
Its value is 34,797.

What about the Ki [4] of the same molecule?
The Ki was 2.96 nM.

What about the “LD50 Viability SY5Y” value [5] of the same molecule?
The value was 0.46 mM.

And the “LD50 cytotox SY5Y” value [5]?
The value was 0.68 mM.

With NCc1c(-c2ccc(Cl)cc2Cl)ncn1Cc1ccsc1 [Example 130b, (4-(2,4-dichlorophenyl)-1-((thiophen-3-yl)methyl)-1H-imidazol-5-yl)methanamine] as the molecule, how does the LogBB ([2]; Animal No. 1) read?
Its LogBB is −0.65.

What about the LogBB ([2]; Animal No. 2) of the same molecule?
The LogBB was −0.63.

What about the LogBB ([2]; Animal No. 3) of the same molecule?
The LogBB was −1.03.

What about the LogBB ([2]; Animal No. 4) of the same molecule?
Its LogBB is −0.12.

And the LogBB ([2]; Animal No. 5)?
The LogBB was −0.76.

What about the Kp at 60 min [2] of the same molecule?
Its Kp at 60 min is 0.23.

What about the Kp at 1 h [2] of the same molecule?
The Kp at 1 h was 0.23.

What about the “LogBB Mean” value [2] of the same molecule?
The value was −0.6380.

And the Ki [3]?
Its Ki is 21500 nM.

What about the IC50 ([3]; Gly Pro-AMC 0.25 mM) of the same molecule?
The IC50 was 97300 nM.

What about the “Selectivity DP9(IC50)/DPIV(Ki)” value [3] of the same molecule?
The value was 12,653.

What about the Ki [4] of the same molecule?
Its Ki is 7.69 nM.

And the “LD50 Viability SY5Y” value [5]?
The value was 0.17 mM.

What about the “LD50 cytotox SY5Y” value [5] of the same molecule?
The value was 0.28 mM.

With NCc1c(-c2ccc(Cl)cc2Cl)ncn1Cc1ccccc1 [Example 24b, (1-benzyl-4-(2,4-dichlorophenyl)-1H-imidazol-5-yl)methanamine] as the molecule, how does the IC50 [1] read?
Its IC50 is 900 nM.

What about the LogBB ([2]; Animal No. 1) of the same molecule?
The LogBB was −0.36.

What about the LogBB ([2]; Animal No. 2) of the same molecule?
The LogBB was −0.33.

And the LogBB ([2]; Animal No. 3)?
Its LogBB is −0.26.

What about the LogBB ([2]; Animal No. 4) of the same molecule?
The LogBB was −0.34.

And the LogBB ([2]; Animal No. 5)?
The LogBB was −0.29.

What about the Kp at 60 min [2] of the same molecule?
The Kp at 60 min was 0.483.

And the Kp at 1 h [2]?
The Kp at 1 h was 0.483.

And the “LogBB Mean” value [2]?
Its value is −0.3160.

What about the “Selectivity DP9(IC50)/DPIV(Ki)” value [3] of the same molecule?
The value was 25,527.

What about the Ki [4] of the same molecule?
Its Ki is 4.74 nM.

And the “LD50 Viability SY5Y” value [5]?
The value was 0.11 mM.

And the “LD50 cytotox SY5Y” value [5]?
Its value is 0.19 mM.

For NCc1c(-c2ccc(Cl)cc2Cl)ncn1Cc1ccccn1 [Example 39b], which IC50 [1] is on record?
Its IC50 is 4600 nM.

What about the LogBB ([2]; Animal No. 1) of the same molecule?
The LogBB was −0.56.

And the LogBB ([2]; Animal No. 2)?
The LogBB was −0.43.

And the LogBB ([2]; Animal No. 3)?
The LogBB was −0.53.

What about the LogBB ([2]; Animal No. 4) of the same molecule?
Its LogBB is −0.38.

What about the LogBB ([2]; Animal No. 5) of the same molecule?
The LogBB was −0.39.

And the Kp at 60 min [2]?
Its Kp at 60 min is 0.275.

What about the Kp at 1 h [2] of the same molecule?
The Kp at 1 h was 0.275.

And the “LogBB Mean” value [2]?
The value was −0.4580.

And the “Selectivity DP9(IC50)/DPIV(Ki)” value [3]?
The value was 20,951.

And the Ki [4]?
Its Ki is 5.68 nM.

And the “LD50 Viability SY5Y” value [5]?
Its value is 0.29 mM.

And the “LD50 cytotox SY5Y” value [5]?
The value was 0.60 mM.
